According to patent publication US8598193B2, “Polycyclic agents for the treatment of respiratory syncytial virus infections” (Biota Scientific Management Pty Ltd., priority 2003, dated 2013):
≈ marks a conversion by molar mass, not a printed value.

system: RSV A2; experiment: RSV antiviral cytopathic effect (CPE) assay, MTT readout; format: cell-based; settings: human respiratory syncytial virus, HEp-2, 120 h; RSV A2 in HEp2 cells, CPE assay, MTT, approx. 5 days; read-out: Activity Range (RSV A2 antiviral EC50), compounds of Table 2
Method: Method Q: RSV Antiviral Assay Protocol
Compounds of the invention were tested for their antiviral activity against respiratory syncytial virus. Cytopathic effect (CPE) assays were performed essentially as described in the literature (see for example Watanabe et al, 1. Virological Methods, 1994, 48, 257). Serial dilutions of the test compounds were made in assay medium. HEp2 cells (1.0×10^4 cells/well) were infected with RSV at a low multiplicity of infection (e.g. RSV A2 at an moi of 0.01) and 100 μL added to cultures assessing antiviral activity and cells without virus added to those assessing compound cytotoxicity. Assays were incubated for approximately 5 days at 37° C. in a 5% CO2 atmosphere. The extent of CPE was determined via metabolism of the vital dye 3-(4,5-dimethylthiaxol-2-yl)-2,5-diphenyltetrazolium bromide (MTT). A 3 mg/ml stock of MTT was made in assay medium and 100 μL added to each well, taking the final MTT concentration to […]. After 2 hours incubation at 37° C., the media-MTT solution was removed and 200 μL of isopropanol was added to dissolve the vital dye crystals. Plates were shaken and the absorbance read at 540 nm. The compound concentrations that inhibited CPE by 50% (EC50) and developed cytotoxicity (CC50) were calculated using an Excel curve fitting program.

SMILES	EC50 [µg/mL]
CCOc1ccc(C23c4ccccc4C(=O)N2CCN3C(=O)c2ccc(F)cc2)cc1 (stereo not shown) [Compound 308]	0.1 to 0.25 (≈ 0.24 to 0.6 µM)
CCCc1ccc(C23c4ccccc4C(=O)N2CCN3C(=O)Cc2ccc(OC)cc2)cc1 (stereo not shown) [Compound 201]	0.25 to 1 (≈ 0.567 to 2.27 µM)
CC(=O)COc1ccc(C23c4ccccc4C(=O)N2CCN3C(=O)c2ccc(F)cc2)cc1 (stereo not shown) [Compound 268]	0.25 to 1 (≈ 0.562 to 2.25 µM)
COc1ccc(CNC(=O)N2CCN3C(=O)c4ccccc4C23c2ccc(C)cc2)cc1 (stereo not shown) [Compound 179]	0.25 to 1 (≈ 0.585 to 2.34 µM)
O=C(c1cccc(Cl)n1)N1CCN2C(=O)c3ccccc3C12c1ccc(Cl)cc1 (stereo not shown) [Compound 330]	0.1 to 0.25 (≈ 0.236 to 0.589 µM)
O=C(CSCc1ccccc1)N1CCN2C(=O)c3ccccc3C12c1ccc(Cl)cc1 (stereo not shown) [Compound 217]	0.1 to 0.25 (≈ 0.223 to 0.557 µM)
Cc1nc(C(=O)N2CCN3C(=O)c4ccccc4C23c2ccc(Cl)cc2)cs1 (stereo not shown) [Compound 188]	0.25 to 1 (≈ 0.61 to 2.44 µM)
O=C1c2ccccc2C2(c3ccc(Cl)cc3)N1CCN2C(=O)[C@@H]1CSC(c2cccs2)=N1 (stereo partly shown) [Compound 323]	0.25 to 1 (≈ 0.521 to 2.08 µM)
Cc1ccc(C23c4ccccc4C(=O)N2CCN3C(=O)NCc2ccc(F)cc2)cc1 (stereo not shown) [Compound 88]	< 0.1
N#CCOc1ccc(C23c4ccccc4C(=O)N2CCN3C(=O)c2ccc(F)cc2)cc1 (stereo not shown) [Compound 239]	0.1 to 0.25 (≈ 0.234 to 0.585 µM)
Cc1ccc(CNC(=O)N2CCN3C(=O)c4ccccc4C23c2ccc(C)cc2)cc1 (stereo not shown) [Compound 178]	0.25 to 1 (≈ 0.608 to 2.43 µM)
COc1ccc(CCC(=O)N2CCN3C(=O)c4ccccc4C23c2ccc(Cl)cc2)cc1 (stereo not shown) [Compound 211]	0.25 to 1 (≈ 0.559 to 2.24 µM)
COc1ccc(NC(=O)N2CCN3C(=O)c4ccccc4C23c2ccc(Cl)cc2)cc1 (stereo not shown) [Compound 85]	0.1 to 0.25 (≈ 0.23 to 0.576 µM)
O=C(c1ccc(F)cc1)N1CCN2C(=O)c3ccccc3C12c1ccc(OCc2ccccc2)cc1 (stereo not shown) [Compound 262]	0.1 to 0.25 (≈ 0.209 to 0.522 µM)
Cc1cc(C(=O)N2CCN3C(=O)c4ccccc4C32c2ccc(Cl)cc2)c(C)o1 (stereo not shown) [Compound 325]	< 0.1
O=C(c1csnn1)N1CCN2C(=O)c3ccccc3C12c1ccc(Cl)cc1 (stereo not shown) [Compound 243]	< 0.1
O=C(c1ccco1)N1CCN2C(=O)c3ccccc3C12c1ccc(Cl)cc1 (stereo not shown) [Compound 219]	< 0.1
O=C(c1ccc(F)cc1)N1CCN2C(=O)c3ccccc3C12c1ccc(OCCCCCl)cc1 (stereo not shown) [Compound 264]	0.25 to 1 (≈ 0.522 to 2.09 µM)

SMILES	EC50 [µg/mL]
O=C(c1cscn1)N1CCN2C(=O)c3ccccc3C12c1ccc(Cl)cc1 (stereo not shown) [Compound 334]	0.1 to 0.25 (≈ 0.253 to 0.632 µM)
CCCOc1ccc(C23c4ccccc4C(=O)N2CCN3C(=O)c2ccc(F)cc2)cc1 (stereo not shown) [Compound 311]	0.1 to 0.25 (≈ 0.232 to 0.581 µM)
NC(=O)COc1ccc(C23c4ccccc4C(=O)N2CCN3C(=O)c2ccc(F)cc2)cc1 (stereo not shown) [Compound 266]	0.25 to 1 (≈ 0.561 to 2.24 µM)
C=CCCC(=O)N1CCN2C(=O)c3ccccc3C12c1ccc(Cl)cc1 (stereo not shown) [Compound 250]	0.25 to 1 (≈ 0.681 to 2.73 µM)
O=C(CC1CCCC1)N1CCN2C(=O)c3ccccc3C12c1ccc(Cl)cc1 (stereo not shown) [Compound 216]	0.25 to 1 (≈ 0.633 to 2.53 µM)
COc1ccc(CC(=O)N2CCN3C(=O)c4ccccc4C23c2ccc(C(F)(F)F)cc2)cc1 (stereo not shown) [Compound 304]	0.25 to 1 (≈ 0.536 to 2.14 µM)
CCCc1ccc(C23c4ccccc4C(=O)N2CCN3C(=O)c2ccc(F)cc2)cc1 (stereo not shown) [Compound 200]	< 0.1
O=C1c2ccccc2C2(c3ccc(Cl)cc3)N1CCN2C(=O)c1cccc2c1OCCO2 (stereo not shown) [Compound 245]	0.25 to 1 (≈ 0.559 to 2.24 µM)
Cn1cc(C(=O)N2CCN3C(=O)c4ccccc4C32c2ccc(Cl)cc2)c(C(F)(F)F)n1 (stereo not shown) [Compound 333]	< 0.1
NCCNc1ccc(C(=O)N2CCN3C(=O)c4ccccc4C23c2ccc(Cl)cc2)cn1 (stereo not shown) [Compound 320]	0.25 to 1 (≈ 0.558 to 2.23 µM)
CCc1ccc(C23c4ccccc4C(=O)N2CCN3C(=O)c2ccc(F)cc2)cc1 (stereo not shown) [Compound 191]	< 0.1
O=C(c1cccs1)N1CCN2C(=O)c3ccccc3C12c1ccc(Cl)cc1 (stereo not shown) [Compound 224]	< 0.1
O=C(c1ccc(F)cc1)N1CCN2C(=O)c3ccccc3C12c1cccc(Cl)c1 (stereo not shown) [Compound 144]	0.1 to 0.25 (≈ 0.246 to 0.614 µM)
COc1ccc(CNC(=O)N2CCN3C(=O)c4ccccc4C23c2ccc(Cl)cc2)cc1 (stereo not shown) [Compound 180]	0.25 to 1 (≈ 0.558 to 2.23 µM)
CCc1ccc(C23c4ccccc4C(=O)N2CCN3C(=O)Cc2ccc(OC)cc2)cc1 (stereo not shown) [Compound 190]	0.25 to 1 (≈ 0.586 to 2.34 µM)
O=C(c1ccc(F)cc1)N1CCN2C(=O)c3ccccc3C12c1ccc(OCC2CC2)cc1 (stereo not shown) [Compound 267]	< 0.1
O=C(c1ccsc1)N1CCN2C(=O)c3ccccc3C12c1ccc(Cl)cc1 (stereo not shown) [Compound 327]	0.1 to 0.25 (≈ 0.253 to 0.633 µM)

same assay, conditions: human respiratory syncytial virus, HEp-2, 120 h; RSV A2 in HEp2 cells, CPE assay, MTT, approx. 5 days; read-out: Activity Range (RSV A2 antiviral EC50), compounds of Table 3

SMILES	EC50 [µg/mL]
O=C(c1ccc(Br)s1)N1CCN2C(=O)c3ccncc3C12c1ccc(Cl)cc1 (stereo not shown) [Compound 437]	0.25 to 1 (≈ 0.527 to 2.11 µM)
O=C(c1ccc(F)nc1)N1CCN2C(=O)c3cnccc3C12c1ccc(Br)cc1 (stereo not shown) [Compound 367]	0.25 to 1 (≈ 0.552 to 2.21 µM)
CC(C)c1sc(Cl)nc1C(=O)N1CCN2C(=O)c3ccncc3C21c1ccc(Cl)cc1 (stereo not shown) [Compound 474]	0.1 to 0.25 (≈ 0.211 to 0.528 µM)
O=C(c1csc(-c2cccnc2)n1)N1CCN2C(=O)c3ccncc3C12c1ccc(Cl)cc1 (stereo not shown) [Compound 381]	< 0.1
O=C(c1ccc(F)nc1)N1CCN2C(=O)c3ncccc3C12c1ccc(Cl)cc1 (stereo not shown) [Compound 370]	0.25 to 1 (≈ 0.612 to 2.45 µM)
Cn1cc(C(=O)N2CCN3C(=O)c4ccncc4C32c2ccc(Cl)cc2)c(C(F)(F)F)n1 (stereo not shown) [Compound 467]	< 0.1
CCCCC#Cc1cncc(C(=O)N2CCN3C(=O)c4ccncc4C23c2ccc(Cl)cc2)c1 (stereo not shown) [Compound 408]	0.25 to 1 (≈ 0.531 to 2.12 µM)
O=C(c1cncc(Br)c1)N1CCN2C(=O)c3ccncc3C12c1ccc(Cl)cc1 (stereo not shown) [Compound 405]	0.1 to 0.25 (≈ 0.213 to 0.532 µM)
Cc1cc(C(=O)N2CCN3C(=O)c4ccncc4C23c2ccc(Cl)cc2)no1 (stereo not shown) [Compound 382]	0.25 to 1 (≈ 0.633 to 2.53 µM)
CC(C)c1nnsc1C(=O)N1CCN2C(=O)c3ccncc3C21c1ccc(Cl)cc1 (stereo not shown) [Compound 464]	0.25 to 1 (≈ 0.568 to 2.27 µM)
COc1c(C(=O)N2CCN3C(=O)c4ccncc4C32c2ccc(Cl)cc2)csc1Cl (stereo not shown) [Compound 436]	0.1 to 0.25 (≈ 0.217 to 0.543 µM)
COc1cscc1C(=O)N1CCN2C(=O)c3ccncc3C12c1ccc(Cl)cc1 (stereo not shown) [Compound 441]	0.1 to 0.25 (≈ 0.235 to 0.587 µM)
CCn1nc(C)cc1C(=O)N1CCN2C(=O)c3ccncc3C21c1ccc(Cl)cc1 (stereo not shown) [Compound 422]	0.25 to 1 (≈ 0.593 to 2.37 µM)
Cc1nc(-c2cnccn2)sc1C(=O)N1CCN2C(=O)c3ccncc3C21c1ccc(Cl)cc1 (stereo not shown) [Compound 458]	0.1 to 0.25 (≈ 0.205 to 0.511 µM)
O=C(c1cncc(-c2cccs2)c1)N1CCN2C(=O)c3ccncc3C12c1ccc(Cl)cc1 (stereo not shown) [Compound 409]	0.1 to 0.25 (≈ 0.211 to 0.529 µM)
O=C1c2ccncc2C2(c3ccc(Cl)cc3)N1CCN2C(=O)c1csc2ccccc12 (stereo not shown) [Compound 379]	0.1 to 0.25 (≈ 0.224 to 0.561 µM)
O=C(c1ccsc1)N1CCN2C(=O)c3ccncc3C12c1ccc(Cl)cc1 (stereo not shown) [Compound 430]	< 0.1
COc1ccc(CC(=O)N2CCN3C(=O)c4ccncc4C23c2ccc(Cl)cc2)cc1 (stereo not shown) [Compound 351]	0.25 to 1 (≈ 0.576 to 2.3 µM)
Cc1nn(-c2ccccc2)nc1C(=O)N1CCN2C(=O)c3ccncc3C21c1ccc(Cl)cc1 (stereo not shown) [Compound 387]	0.1 to 0.25 (≈ 0.212 to 0.531 µM)

SMILES	EC50 [µg/mL]
O=C(c1cccc(Cl)n1)N1CCN2C(=O)c3ccncc3C12c1ccc(Cl)cc1 (stereo not shown) [Compound 453]	< 0.1
CCc1ccc(C23c4cnccc4C(=O)N2CCN3C(=O)c2ccc(F)cc2)cc1 (stereo not shown) [Compound 361]	0.1 to 0.25 (≈ 0.249 to 0.623 µM)
Cc1cc(C(=O)N2CCN3C(=O)c4ccncc4C32c2ccc(Cl)cc2)c(C(F)(F)F)o1 (stereo not shown) [Compound 385]	< 0.1
O=C(c1ccc(F)cc1)N1CCN2C(=O)c3ccncc3C12c1ccc(Br)cc1 (stereo not shown) [Compound 358]	0.1 to 0.25 (≈ 0.221 to 0.553 µM)
CCCCCSc1ncccc1C(=O)N1CCN2C(=O)c3ccncc3C21c1ccc(Cl)cc1 (stereo not shown) [Compound 399]	0.25 to 1 (≈ 0.507 to 2.03 µM)
O=C(c1ccc(F)nc1)N1CCN2C(=O)c3ccncc3C12c1ccc(Cl)cc1 (stereo not shown) [Compound 368]	< 0.1
O=C(c1cccnc1)N1CCN2C(=O)c3ccncc3C12c1ccc(Cl)cc1 (stereo not shown) [Compound 363]	< 0.1
CSc1ncc(Cl)c(C(=O)N2CCN3C(=O)c4ccncc4C32c2ccc(Cl)cc2)n1 (stereo not shown) [Compound 454]	0.1 to 0.25 (≈ 0.212 to 0.529 µM)
Cc1nonc1C(=O)N1CCN2C(=O)c3ccncc3C21c1ccc(Cl)cc1 (stereo not shown) [Compound 484]	< 0.1
CCc1ccc(C23c4cnccc4C(=O)N2CCN3C(=O)Cc2ccc(OC)cc2)cc1 (stereo not shown) [Compound 371]	0.25 to 1 (≈ 0.585 to 2.34 µM)
O=C1c2ccncc2C2(c3ccc(Cl)cc3)N1CCN2C(=O)c1sccc1Cl (stereo not shown) [Compound 442]	< 0.1
CCCSc1ncccc1C(=O)N1CCN2C(=O)c3ccncc3C21c1ccc(Cl)cc1 (stereo not shown) [Compound 401]	0.1 to 0.25 (≈ 0.215 to 0.538 µM)
CSc1ncccc1C(=O)N1CCN2C(=O)c3ccncc3C21c1ccc(Cl)cc1 (stereo not shown) [Compound 398]	0.1 to 0.25 (≈ 0.229 to 0.572 µM)
COc1c(C(=O)N2CCN3C(=O)c4ccncc4C32c2ccc(Cl)cc2)csc1Br (stereo not shown) [Compound 438]	0.25 to 1 (≈ 0.495 to 1.98 µM)
O=C(c1ccccn1)N1CCN2C(=O)c3ccncc3C12c1ccc(Cl)cc1 (stereo not shown) [Compound 455]	0.25 to 1 (≈ 0.64 to 2.56 µM)
CCc1ccc(C23c4c[n+]([O-])ccc4C(=O)N2CCN3C(=O)c2ccc(F)cc2)cc1 (stereo not shown) [Compound 372]	0.25 to 1 (≈ 0.599 to 2.4 µM)
O=C(c1csc(-c2ccncc2)n1)N1CCN2C(=O)c3ccncc3C12c1ccc(Cl)cc1 (stereo not shown) [Compound 457]	0.25 to 1 (≈ 0.527 to 2.11 µM)
Cc1oc(-c2ccccc2)cc1C(=O)N1CCN2C(=O)c3ccncc3C21c1ccc(Cl)cc1 (stereo not shown) [Compound 394]	0.25 to 1 (≈ 0.532 to 2.13 µM)
O=C(c1ccc(F)nc1)N1CCN2C(=O)c3cc[n+]([O-])cc3C12c1ccc(Cl)cc1 (stereo not shown) [Compound 480]	< 0.1
